What was measured:
Type in all cases: functional
[1] = system: Onchocerca lienalis; test: MMV: Percent motility assay at a compound concentration of 1.25e-5 M. Activity score legend: 3: Active, 2: Moderately active; 1: Inactive, 0: Toxic; details: at 12.5 µM
[2] = system: Onchocerca lienalis; test: MMV: Percent motility assay at a compound concentration of 3.1e-6 M. Activity score legend: 3: Active, 2: Moderately active; 1: Inactive, 0: Toxic; details: at 3.1 µM
[3] = system: Onchocerca lienalis; test: MMV: Percent motility assay at a compound concentration of 1.9e-7 M. Activity score legend: 3: Active, 2: Moderately active; 1: Inactive, 0: Toxic; details: at 0.19 µM
[4] = system: Onchocerca lienalis; test: MMV: Percent motility assay at a compound concentration of 7.8e-7 M. Activity score legend: 3: Active, 2: Moderately active; 1: Inactive, 0: Toxic; details: at 0.78 µM

Row | Compound | Motility [1] | Motility [2] | Motility [3] | Motility [4]
1 | CN1CCN(c2ccc(Nc3c4ccccc4nc4ccccc34)cc2)CC1 | 100% | 100% | 100% | 100%
2 | CCN1CCCC1CNc1[nH]cnc2c3cc(Cl)ccc3nc1-2 (centres undefined) | 100% | 100% | 100% | 100%
3 | C[n+]1c2ccccc2nc2ccc(NCCO)cc21 | 100% | 100% | 100% | 100%
4 | CCN(CC)CCNc1ncnc2c1[nH]c1ccc(Cl)cc12 | 100% | 100% | 100% | 100%
5 | CCOC(=O)c1cnc2ccc(CC)cc2c1O | 100% | 100% | 100% | 100%
6 | Cc1ccc(-c2cc3c(nn2)-c2ccccc2C3=O)cc1 | 100% | 100% | 100% | 100%
7 | CCN(CC)CCNc1ccnc2cc(Cl)ccc12 | 100% | 100% | 100% | 100%
8 | Cc1ccc(Nc2nc(-c3ccccn3)cs2)cc1 | 100% | 100% | 100% | 100%
9 | Cc1cc(Nc2ccc3ccccc3c2)n2ncnc2n1 | 100% | 100% | 100% | 100%
10 | COc1ccc(-n2ccnc2SCC(=O)Nc2cc(C)ccc2C)c(OC)c1 | 100% | 100% | 100% | 100%
11 | CCN1CCN(Cc2ccc(NC(=O)c3cc4ccc5cccnc5c4[nH]3)cc2)CC1 | 100% | 100% | 100% | 100%
12 | CCC(c1ccccc1)c1nn2c(-c3cccs3)nnc2s1 (centres undefined) | 100% | 100% | 100% | 100%
13 | CCOc1cc2c(cc1OCC)C(c1cc(OC)c(O)cc1Cl)NCC2 (centres undefined) | 100% | 100% | 100% | 100%
14 | CC1CN(C(=O)c2sc3ccccc3c2Cl)CC(C)O1 (centres undefined) | 100% | 100% | 100% | 100%
15 | CN(C)c1ccc(C=Cc2nc(=O)c3ccccc3o2)cc1 | 100% | 100% | 100% | 100%
16 | CCOC(=O)c1c(NC(=O)c2ccccc2)sc2c(O)c(CN(CC)CC)ccc12 | 100% | 100% | 100% | 100%
17 | OC(CNC1CCCCC1)Cn1c2ccccc2c2ccccc21 (centres undefined) | 60% | 100% | 100% | 100%
18 | COc1cccc(C=Cc2nc(=O)c3ccccc3o2)c1OC | 100% | 100% | 100% | 100%
19 | CCCN(CCC)CC(O)COc1ccccc1C(=O)Nc1ccccc1 (centres undefined) | 100% | 100% | 100% | 100%
20 | COc1ccc(C(=O)Nc2nonc2-c2ccc(OC)c(OC)c2)cc1Cl | 100% | 100% | 100% | 100%
21 | COc1ccc(NC(=O)C2c3ccccc3C(=O)N(CC(C)C)C2c2cccs2)cc1Cl (centres undefined) | 100% | 100% | 100% | 100%

Row | Compound | Motility [1] | Motility [2] | Motility [3] | Motility [4]
22 | CCOC(=O)c1c(C)n(-c2ccc(Cl)cc2)c2ccc(OC(=O)C=Cc3ccccc3)cc12 | 100% | 100% | 100% | 100%
23 | COc1ccc2c(c1)OC(O)(C(F)(F)C(F)(F)F)CC2=O (centres undefined) | 100% | 100% | 100% | 100%
24 | CCOc1cc(Cl)c(C(C)NC(=O)c2ccccc2)cc1OCC (centres undefined) | 100% | 100% | 100% | 100%
25 | C=CC12CCN(CC1)C(C(O)c1ccnc3ccc(OC)cc13)C2.Cl (centres undefined) | 100% | 100% | 100% | 100%
26 | Cc1ccc(-c2cc3nc4c(c(O)n3n2)CCCC4)cc1 | 100% | 100% | 100% | 100%
27 | c1ccc2cc3c(Nc4ccc(N5CCOCC5)cc4)ccnc3cc2c1 | 100% | 100% | 100% | 100%
28 | Cc1cc(C)c2c(c1)OCN(Cc1ccccc1Cl)C2 | 100% | 100% | 100% | 100%
29 | COc1ccccc1NC1=C(N2CCCCC2)C(=O)c2ccccc2C1=O | 100% | 100% | 100% | 100%
30 | CCOC(=O)c1cn(CC)c2cc(N3CCCCC3)c(F)cc2c1=O | 100% | 100% | 100% | 100%
31 | CCCc1cc(O)c2c3c(c(=O)oc2c1)CN(C)CC3 | 66.6% | 100% | 100% | 100%
32 | Cc1cc(NC(=O)C2c3ccccc3C(=O)N(CC(C)C)C2c2cccs2)no1 (centres undefined) | 100% | 100% | 100% | 100%
33 | CCOc1ccc(-c2nonc2NC(=O)c2cccc(C)c2)cc1OCC | 100% | 100% | 100% | 100%
34 | COc1ccc(-c2nc3cc(Cc4ccc5[nH]c(-c6ccc(OC)cc6)nc5c4)ccc3[nH]2)cc1 | 80% | 100% | 100% | 100%
35 | CCOC(=O)c1ccc2nc(-c3ccccc3)cc(O)c2c1 | 100% | 100% | 100% | 100%
36 | Cc1cc(Nc2ccc(Cl)cc2)n2nc(C(F)(F)F)nc2n1 | 100% | 100% | 100% | 100%
37 | CCCCCCOC(=O)C1=C(C)NC(=O)NC1c1ccccc1F (centres undefined) | 6% | 100% | 100% | 100%
38 | Cc1ccc(N2C3c4ccccc4N(S(=O)(=O)c4ccc(C)cc4)C2c2ccccc2N3S(=O)(=O)c2ccc(C)cc2)cc1 | 100% | 100% | 100% | 100%
39 | Cc1ccc(Nc2nc(NCCO)c3ccccc3n2)cc1C | 33.33% | 100% | 100% | 100%
40 | COc1ccc(NC(=O)C2c3ccccc3C(=O)N(CC(C)C)C2c2cccs2)cc1 (centres undefined) | 100% | 100% | 100% | 100%
41 | c1ccc(Cn2c(N=Nc3c(Nc4ccccc4)ccc4ccccc34)nc3ccccc32)cc1 | 100% | 100% | 100% | 100%

— ChEMBL document CHEMBL3137381, “MMV Box Onchocerca lienalis screening set”
